Assay results as given in US20100056526A1, “HETEROMONOCYCLIC COMPOUND AND USE THEREOF” (Takeda Pharmaceutical Company Limited, priority 2006, published 2010).
Counter-ions that a name gives are not always drawn. Like-named read-outs stand apart in the source and are kept apart here.

Tests used:
human AT1 receptor = target: T1, human AT1 receptor (Homo sapiens, UniProt P30556); assay: Binding assay using human AT1 receptor-expressing CHO-K1 cell membrane fraction ([125I]-angiotensin II); details: 22.5 pM [125I]-angiotensin II, 9 μg AT1 membrane, 1 hr room temperature; read-out: AT1 receptor binding inhibitory action (IC50 (nM))
T1 construct: expressed in transfected cells; host or cells: CHO-K1
T1 sequence (P30556 1-359): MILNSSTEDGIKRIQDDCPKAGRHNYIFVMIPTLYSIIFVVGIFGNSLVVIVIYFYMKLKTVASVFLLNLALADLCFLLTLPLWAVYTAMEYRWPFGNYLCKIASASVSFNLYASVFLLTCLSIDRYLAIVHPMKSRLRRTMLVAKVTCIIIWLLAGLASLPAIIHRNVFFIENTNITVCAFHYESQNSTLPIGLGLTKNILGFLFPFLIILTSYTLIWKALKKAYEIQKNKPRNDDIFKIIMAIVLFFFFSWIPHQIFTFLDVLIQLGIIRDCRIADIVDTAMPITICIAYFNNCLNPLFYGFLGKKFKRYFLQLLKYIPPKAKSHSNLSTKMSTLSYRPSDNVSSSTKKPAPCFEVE
Procedure, shortened: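 CHO-K1 membranes stably expressing AT1 (9 μg) incubated with 22.5 pM [125I]-angiotensin II and compound in 50 mM Tris pH 7.4, 10 mM MgCl2, with or without 0.3 mg/mL fatty acid-free BSA, 1 hr at room temperature. Bound radioactivity counted after GF/C filtration; nonspecific binding with 1 μM CV-11974; IC50 calculated.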

PPARγ = target: T2, PPARγ (Homo sapiens, UniProt P37231); assay: Evaluation of PPARγ activating action (luciferase reporter in PPARγ:RXRα:4ERPP/CHO-K1 cells); format: cell-based; details: CHO-K1, 24 h, read-out: PPARγ activating action (activation % (10^−6 M))
T2 construct: expressed in transfected cells; host or cells: CHO-K1
T2 sequence (P37231 1-477 isoform P37231-2): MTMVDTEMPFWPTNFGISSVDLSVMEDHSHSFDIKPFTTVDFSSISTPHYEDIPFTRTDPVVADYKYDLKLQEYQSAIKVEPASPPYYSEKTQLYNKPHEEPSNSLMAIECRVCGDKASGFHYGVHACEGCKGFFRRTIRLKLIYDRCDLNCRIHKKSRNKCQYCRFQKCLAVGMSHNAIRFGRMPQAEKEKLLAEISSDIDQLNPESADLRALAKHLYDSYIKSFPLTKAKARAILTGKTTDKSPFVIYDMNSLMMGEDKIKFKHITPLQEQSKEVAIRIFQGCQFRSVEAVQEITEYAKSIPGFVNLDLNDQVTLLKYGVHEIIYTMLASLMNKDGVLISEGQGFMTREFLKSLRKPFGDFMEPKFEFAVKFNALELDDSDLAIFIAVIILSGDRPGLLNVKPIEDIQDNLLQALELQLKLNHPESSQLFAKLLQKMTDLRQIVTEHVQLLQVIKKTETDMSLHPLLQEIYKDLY
T2 sequence (P19793 1-462 partner): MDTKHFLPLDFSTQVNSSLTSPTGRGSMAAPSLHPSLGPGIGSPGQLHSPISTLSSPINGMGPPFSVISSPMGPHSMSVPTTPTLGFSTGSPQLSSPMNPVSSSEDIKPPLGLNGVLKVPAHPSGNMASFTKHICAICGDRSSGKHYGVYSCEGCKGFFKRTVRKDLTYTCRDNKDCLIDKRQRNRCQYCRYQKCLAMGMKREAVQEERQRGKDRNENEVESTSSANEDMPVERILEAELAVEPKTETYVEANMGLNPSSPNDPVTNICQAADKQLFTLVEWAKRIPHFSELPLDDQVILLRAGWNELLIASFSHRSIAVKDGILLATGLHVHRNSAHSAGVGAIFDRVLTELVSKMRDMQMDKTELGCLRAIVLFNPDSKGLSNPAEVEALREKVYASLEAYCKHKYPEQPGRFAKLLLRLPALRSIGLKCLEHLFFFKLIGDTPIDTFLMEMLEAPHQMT
Procedure, shortened: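 CHO-K1 cells stably carrying PPARγ, RXRα and a 4ERPP luciferase reporter were treated with compound for 1 day at 37 °C in F12 medium with 0.1% fatty acid-free BSA. Luciferase activity was read and scaled between no compound (0%) and reference agonist compound X at 1 μM (100%).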

[1] = test compound 10^−6 M, luciferase activity relative to control compound X (1 μM) = 100%, non-administration group = 0%

| IC50 (human AT1 receptor) | activation at 1 µM (PPARγ; [1]) | Compound | activation at 1 µM (PPARγ) |
| --- | --- | --- | --- |
| 1.5 nM | 61.2% | CCCCc1nc(C)n(CC23CC4CC(CC(C4)C2)C3)c(=O)c1Cc1ccc(-c2ccccc2-c2noc(=O)[nH]2)cc1 [Example 42, 3-(1-adamantylmethyl)-6-butyl-2-methyl-5-{[2′-(5-oxo-4,5-dihydro-1,2,4-oxadiazol-3-yl)biphenyl-4-yl]methyl}pyrimidin-4(3H)-one] |  |
| 1.6 nM | 30.5% | CCCOc1ccc(-n2c(C)nc(CCC)c(Cc3ccc(-c4ccccc4-c4noc(=O)[nH]4)cc3)c2=O)cc1 [Example 249, 2-methyl-5-{[2′-(5-oxo-4,5-dihydro-1,2,4-oxadiazol-3-yl)biphenyl-4-yl]methyl}-3-(4-propoxyphenyl)-6-propylpyrimidin-4(3H)-one] |  |
| 1.2 nM | 16.2% | CCCc1nc(C)c(-c2ccc(OC(C)(C)CO)cc2)c(=O)n1Cc1ccc(-c2ccccc2-c2noc(=O)[nH]2)cc1F [Example 509, 3-{[3-fluoro-2′-(5-oxo-4,5-dihydro-1,2,4-oxadiazol-3-yl)biphenyl-4-yl]methyl}-5-[4-(2-hydroxy-1,1-dimethylethoxy)phenyl]-6-methyl-2-propylpyrimidin-4(3H)-one] |  |
| 2.2 nM | 30% | CCCc1nc(CC)c(-c2ccc(OC(C)C)c(F)c2)c(=O)n1Cc1ccc(-c2ccccc2-c2noc(=O)[nH]2)cc1 [Example 460, 6-ethyl-5-(3-fluoro-4-isopropoxyphenyl)-3-{[2′-(5-oxo-4,5-dihydro-1,2,4-oxadiazol-3-yl)biphenyl-4-yl]methyl}-2-propylpyrimidin-4(3H)-one] |  |
| 1.5 nM | 50.2% | CCCCc1nc(CF)n(Cc2ccccc2)c(=O)c1Cc1ccc(-c2ccccc2-c2noc(=O)[nH]2)cc1 [Example 103, 3-benzyl-6-butyl-2-(fluoromethyl)-5-{[2′-(5-oxo-4,5-dihydro-1,2,4-oxadiazol-3-yl)biphenyl-4-yl]methyl}pyrimidin-4(3H)-one] |  |
| 1.8 nM | 41.5% | CCCCc1nc(C)n(CCc2ccc(OC)cc2)c(=O)c1Cc1ccc(-c2ccccc2-c2noc(=O)[nH]2)cc1 [Example 94, 6-butyl-3-[2-(4-methoxyphenyl)ethyl]-2-methyl-5-{[2′-(5-oxo-4,5-dihydro-1,2,4-oxadiazol-3-yl)biphenyl-4-yl]methyl}pyrimidin-4(3H)-one] |  |
| 2 nM | 23.5% | CCCc1nc(CC)c(Oc2ccc3c(c2)OCO3)c(=O)n1Cc1ccc(-c2ccccc2-c2noc(O)n2)cc1 [Example 485, 5-(1,3-benzodioxol-5-yloxy)-6-ethyl-3-{[2′-(5-oxo-4,5-dihydro-1,2,4-oxadiazol-3-yl)biphenyl-4-yl]methyl}-2-propylpyrimidin-4(3H)-one] |  |
| 1.5 nM | 30.3% | CCCc1nc(CC)n(-c2ccc(OC(C)(C)CO)cc2)c(=O)c1Cc1ccc(-c2ccccc2-c2noc(=O)[nH]2)cc1 [Example 377, 2-ethyl-3-[4-(2-hydroxy-1,1-dimethylethoxy)phenyl]-5-{[2′-(5-oxo-4,5-dihydro-1,2,4-oxadiazol-3-yl)biphenyl-4-yl]methyl}-6-propylpyrimidin-4(3H)-one] |  |
| 2.1 nM | 64.8% | CCCCc1nc(C)n(Cc2noc(-c3ccccc3)n2)c(=O)c1Cc1ccc(-c2ccccc2-c2noc(=O)[nH]2)cc1 [Example 152, 6-butyl-2-methyl-5-{[2′-(5-oxo-4,5-dihydro-1,2,4-oxadiazol-3-yl)biphenyl-4-yl]methyl}-3-[(5-phenyl-1,2,4-oxadiazol-3-yl)methyl]pyrimidin-4(3H)-one] |  |
| 0.9 nM | 22.2% | CCCc1nc(CC)n(-c2ccc(OC3CCCC(O)C3)cc2)c(=O)c1Cc1ccc(-c2ccccc2-c2noc(=O)[nH]2)cc1 (stereo not drawn) [Example 422, 2-ethyl-3-{4-[(3-hydroxycyclohexyl)oxy]phenyl}-5-{[2′-(5-oxo-4,5-dihydro-1,2,4-oxadiazol-3-yl)biphenyl-4-yl]methyl}-6-propylpyrimidin-4(3H)-one] |  |
| 1.4 nM | 20.1% | CCCc1nc(C)n(-c2ccc(OC(C)(C)C(C)O)cc2)c(=O)c1Cc1ccc(-c2ccccc2-c2noc(=O)[nH]2)cc1 (stereo not drawn) [Example 439, 3-[4-(2-hydroxy-1,1-dimethylpropoxy)phenyl]-2-methyl-5-{[2′-(5-oxo-4,5-dihydro-1,2,4-oxadiazol-3-yl)biphenyl-4-yl]methyl}-6-propylpyrimidin-4(3H)-one] |  |
| 2.3 nM | 19.4% | CCCc1nc(CC)c(Oc2cc(F)ccc2F)c(=O)n1Cc1ccc(-c2ccccc2-c2noc(=O)[nH]2)cc1 [Example 484, 5-(2,5-difluorophenoxy)-6-ethyl-3-{[2′-(5-oxo-4,5-dihydro-1,2,4-oxadiazol-3-yl)biphenyl-4-yl]methyl}-2-propylpyrimidin-4(3H)-one] |  |
| 1.9 nM | 24.3% | CCCCc1nc(C)n(-c2ccc3c(c2)CC(C)(C)O3)c(=O)c1Cc1ccc(-c2ccccc2-c2nsc(=O)[nH]2)cc1 [Example 128, 6-butyl-3-(2,2-dimethyl-2,3-dihydro-1-benzofuran-5-yl)-2-methyl-5-{[2′-(5-oxo-4,5-dihydro-1,2,4-thiadiazol-3-yl)biphenyl-4-yl]methyl}pyrimidin-4(3H)-one] |  |
| 1.7 nM | 22% | CCCc1nc(CC)n(-c2ccc(OC(C)(C)COC)cc2)c(=O)c1Cc1ccc(-c2ccccc2-c2noc(=O)[nH]2)cc1 [Example 376, 2-ethyl-3-[4-(2-methoxy-1,1-dimethylethoxy)phenyl]-5-{[2′-(5-oxo-4,5-dihydro-1,2,4-oxadiazol-3-yl)biphenyl-4-yl]methyl}-6-propylpyrimidin-4(3H)-one] |  |
| 1.1 nM | 45% | CCCc1nc(CC)n(-c2ccc(O[C@H]3CC[C@H](O)CC3)cc2)c(=O)c1Cc1ccc(-c2ccccc2-c2noc(=O)[nH]2)cc1 [Example 414, 2-ethyl-3-{4-[(trans-4-hydroxycyclohexyl)oxy]phenyl}-5-{[2′-(5-oxo-4,5-dihydro-1,2,4-oxadiazol-3-yl)biphenyl-4-yl]methyl}-6-propylpyrimidin-4(3H)-one] |  |

| Compound | IC50 (human AT1 receptor) | activation at 1 µM (PPARγ; [1]) | activation at 1 µM (PPARγ) |
| --- | --- | --- | --- |
| CCCc1nc(C)c(-c2ccc(OC(C)(C)C)cc2)c(=O)n1Cc1ccc(-c2ccccc2-c2noc(O)n2)cc1F [Example 475, 5-(4-tert-butoxyphenyl)-3-{[3-fluoro-2′-(5-oxo-4,5-dihydro-1,2,4-oxadiazol-3-yl)biphenyl-4-yl]methyl}-6-methyl-2-propylpyrimidin-4(3H)-one] | 2 nM | 28.7% |  |
| CCCc1nc(CC)n(-c2ccc3c(c2)CC(C)O3)c(=O)c1Cc1ccc(-c2ccccc2-c2noc(O)n2)cc1 (stereo not drawn) [Example 312, 2-ethyl-3-(2-methyl-2,3-dihydro-1-benzofuran-5-yl)-5-{[2′-(5-oxo-4,5-dihydro-1,2,4-oxadiazol-3-yl)biphenyl-4-yl]methyl}-6-propylpyrimidin-4(3H)-one potassium salt] | 1.6 nM |  | 50.3% |
| CCCc1nc(CC)n(-c2ccc3c(c2)CCO3)c(=O)c1Cc1ccc(-c2ccccc2-c2noc(O)n2)cc1 [Example 311, 3-(2,3-dihydro-1-benzofuran-5-yl)-2-ethyl-5-{[2′-(5-oxo-4,5-dihydro-1,2,4-oxadiazol-3-yl)biphenyl-4-yl]methyl}-6-propylpyrimidin-4(3H)-one potassium salt] | 1.6 nM |  | 38.1% |
